Laboratory results: patent US9816074B2, “Methods and compositions for modulating nuclease-mediated genome engineering in hematopoietic stem cells” (Sangamo BioSciences, Inc., priority 2014, dated 2017)
Where two headings read alike, the source gives them in different places.

Legend:
Type in all cases: cell-based
Human mPB CD34+ cells [1] = experiment: Cell density / proliferative capacity in culture; settings: for cell density / growth (FIG. 3F): extended culture, 17 days
Text: (§1) No change in culture cell density was seen after VPA addition compared to controls in genome modified mPB HSPCs (FIG. 6F).
The presence of IL-6 was capable of enhancing the expression of CD49f with extended culture. […]

Human mPB CD34+ cells [2] = experiment: Cell viability by flow cytometry in the presence of propidium iodide
Method: as §1
(§2) Human mPB CD34+ cells were cultured ex vivo in CC110 media with or without 100 ng/mL IL-6 in the presence of VPA (1.25 mM or 2.5 mM) and 5 mM lithium chloride (Li) for 4 (blue lines—added at 4 days post thawing of the cells) or 7 days (red line—added at 1 day post thawing).

Human mPB CD34+ cells [3] = experiment: Methylcellulose assays (colony forming units) on CD34+ cell cultures
Human mPB CD34+ cells [4] = experiment: Flow cytometry of HSPC multipotency markers (CD34, CD133, CD90, CD49f, CD166, CD38, CD45RA); settings: for CD90 expression (FIG. 3A): dmPGE2 10 μM, SR1 1 μM, 17 days, addition 1 day post thawing; for CD49f expression (FIG. 3C) / CD133 expression (FIG. 3B): compared to controls, 17 day culture; for CD34 expression compared to controls (FIG. 3D): for the duration of the experiment (17 days); for CD90 expression (percent of CD90+ cells, FIG. 2A): nicotinamide 2.5 mM, TEPA 5 μM, addition at 1 day post thawing, vs control
Method: Human mPB CD34+ cells were cultured ex vivo in CC110 media for 3 days with or without VPA, nicotinamide or TEPA. Various cell surface markers are enriched on CD34+ subpopulations that contain true LT-HSCs. Measurement of such cell surface markers can therefore be used as a proxy for the number of LT-HSCs in the culture. In particular, CD90, CD133, CD49f, CD38, and CD166 can be used to assay LT-HSC number (Notta et al. (2011) Science 333(6039):218-21; Chitteti et al. (2014) Blood 124(4):519-29), with the LT-HSCs generally residing in the CD90+CD133+CD49f+CD38-low CD166+ pool. Accordingly, cells were stained using fluorescently-tagged antibodies against the HSPC multipotency markers CD34 (PE-Cy7), CD133 (PE), CD90 (APC), and CD49f (PerCP) and analyzed by flow cytometry.
Human mPB CD34+ cells were cultured ex vivo in CC110 media for 17 days. Cells were then stained using fluorescently-tagged antibodies against the HSPC multipotency markers CD34 (PE-Cy7), CD133 (PE), CD90 (APC), and CD49f (PerCP) and analyzed by flow cytometry as described above.
Human mPB-derived cells were cultured as described above in the presence or absence of VPA (1.25 mM) and 5 mM lithium chloride (Li) and cells assayed for primitive cell surface markers as described above.
CD34+ cells were cultured ex vivo in CC110 media with 100 ng/mL IL-6 for 8 days in the presence or absence of VPA, lithium, nucleases and donors. VPA and Li were added prior to nucleases and/or donors (which can be added in any order). Briefly, CD34+ cells were thawed and cultured for approximately […] before addition of VPA and Li and cultured again (e.g., 1-2 days) before addition of a donor. Nucleases (e.g., ZFN mRNA) were added 0.5 to 1 day later and VPA/Li washed out at the same time. After at least a day, cells were then stained using fluorescently-tagged antibodies against the HSPC multipotency markers CD34 (PE-Cy7), CD133 (PE), CD90 (APC), and CD49f (PerCP) and analyzed by flow cytometry.
CD34+ cells were cultured ex vivo in CC110 media as described above for approximately 6 days in the presence or absence of VPA, lithium, nucleases and donors. VPA and Li were added after to nucleases and/or donors (which can be added in any order). Briefly, CD34+ cells were thawed and cultured for approximately 2-3 days before addition of a donor. Nucleases (e.g., ZFN mRNA) were added 0.5 to 1 day after transfection with the donor. The donor was a SA-IL2RG partial corrective cDNA transgene at IL2RG intron 1 and the zinc-finger nucleases (ZFN) were SBS #s 44271/44298 delivered by BTX electroporation. VPA/Li was added 1 day after addition of the ZFN mRNA. After approximately 3 days, cells were then stained using fluorescently-tagged antibodies against the HSPC multipotency markers CD34 (PE-Cy7), CD133 (PE), CD90 (APC), and CD49f (PerCP) and analyzed by flow cytometry.
as §2
The presence of IL-6 was capable of enhancing the expression of CD49f with extended culture. […] In a further experiment, human mPB CD34+ cells were cultured ex vivo in CC110 media in the presence of VPA (1.25 mM) plus LiCl (5 mM) with or without 100 ng/mL IL-6 for 7 days.
After 7 days in culture cells were stained using fluorescently-tagged antibodies against the HSPC multipotency marker CD166 (PE) and analyzed by flow cytometry. VPA+Li increased the overall fraction of CD166+ cells.
Human mPB CD34+ cells were cultured ex vivo in CC110 media with 100 ng/mL IL-6 in the presence or absence of VPA (1.25 mM) plus LiCl (5 mM) for 6 days.

CD34+ cells = experiment: CRISPR/Cas nuclease modification with VPA (as Example 3, CRISPR/Cas in place of ZFNs); settings: introduced before, concurrently and/or after the CRISPR/Cas nuclease systems
Method: Experiments are conducted as described in Example 3 using CRISPR/Cas nucleases in place of ZFNs (e.g., specific for any gene such as IL2, HPRT, etc.), with and without donors.

[5] = 14 days of in vitro differentiation
[6] = compared to controls after 14 days of in vitro differentiation
[7] = VPA 1.25 mM added 1 day post thawing

Compound: CC(C)n1cnc2c(NCCc3ccc(O)cc3)nc(-c3csc4ccccc34)nc21 [SR1, StemRegenin 1]
- cell density / growth (FIG. 3F) (Human mPB CD34+ cells [1]): slight growth advantage
- cell viability (FIG. 3E) (Human mPB CD34+ cells [2]): no effect on cell viability
- erythroid burst-forming units (BFU-E) (Human mPB CD34+ cells [3]; [5]): increased
- granulocyte and megakaryocyte colony-forming units (CFU-GM) (Human mPB CD34+ cells [3]; [5]): increased
- CD90 expression (FIG. 3A) (Human mPB CD34+ cells [4]; VPA 1.25 mM, CC110 media): No effect
- CD49f expression (FIG. 3C) (Human mPB CD34+ cells [4]): increased expression compared to both controls and VPA after 17 days in culture
- CD133 expression (FIG. 3B) (Human mPB CD34+ cells [4]): decreased expression
- CD34 expression compared to VPA (FIG. 3D) (Human mPB CD34+ cells [4]; extended culture): higher expression
- CD34 expression compared to controls (FIG. 3D) (Human mPB CD34+ cells [4]): retained elevated CD34 expression

Compound: NCCNCCNCCNCCN [TEPA, tetraethylenepentamine]
- CD90 expression (percent of CD90+ cells, FIG. 2A) (Human mPB CD34+ cells [4]; VPA 1.25 mM): No effect

Compound: CCCC(CCC)C(=O)O [VPA, valproic acid]
- cell growth, VPA at day 4 compared to day 1 (Human mPB CD34+ cells [1]): cell growth advantage
- cell growth potential at 2.5 mM VPA (Human mPB CD34+ cells [1]; 2.5 mM VPA): decreased cell growth potential
- initial proliferative capacity (Human mPB CD34+ cells [1]; Example 6, VPA administration): slightly decreased proliferative capacity
- proliferative capacity after 7 days in culture (Human mPB CD34+ cells [1]; Example 6, VPA administration): recovered
- culture cell density (FIG. 6F) (Human mPB CD34+ cells [1]; after VPA addition compared to controls, genome modified mPB HSPCs): No change
- cell density / growth (FIG. 3F) (Human mPB CD34+ cells [1]): slightly decreased proliferative capacity
- cell growth at lower doses of VPA (Human mPB CD34+ cells [1]; lower doses than 2.5 mM): did not affect cell growth as substantially
- cell viability (FIG. 3E) (Human mPB CD34+ cells [2]): no loss of cell viability
- cell viability after VPA addition compared to controls (FIG. 6E) (Human mPB CD34+ cells [2]): no increased loss of cell viability
- overall cell viability with VPA (Human mPB CD34+ cells [2]): slightly lower viability
- recovery of cell viability following VPA administration (Human mPB CD34+ cells [2]): initial delay in recovery
- viability after VPA addition, before genome modification (FIG. 5E) (Human mPB CD34+ cells [2]): no decrease in viability
- viability after genome modification (FIG. 5E) (Human mPB CD34+ cells [2]): significant viability loss
- viability after genome modification (FIG. 6E) (Human mPB CD34+ cells [2]): significant loss of viability
- myeloid or erythroid differentiation capacity (FIG. 2C) (Human mPB CD34+ cells [3]; [6]): no significant difference
- myeloid or erythroid differentiation capacity (FIGS. 3G and 3H) (Human mPB CD34+ cells [3]; [6]): no significant difference
- CRISPR/Cas induced nuclease modification (CD34+ cells): enhances
- level of CD90 expression, VPA added at day 1 vs day 4 (Human mPB CD34+ cells [4]): higher level
- marker expression after VPA washout and genome modification (Human mPB CD34+ cells [4]; Example 3C): retained high CD90, CD34, CD133 and CD49f expression
- CD49f expression compared to controls (Human mPB CD34+ cells [4]; VPA 1.25 mM + LiCl 5 mM, 7 days): increased
- time to peak of CD90 expression after addition (FIG. 2A) (Human mPB CD34+ cells [4]; [7]): ≤ 2 days
- time to peak of CD90 expression after addition (FIG. 3A) (Human mPB CD34+ cells [4]; [7]): ≤ 2 days
- CD90 expression (FIG. 3A) (Human mPB CD34+ cells [4]; VPA 1.25 mM, CC110 media): dramatically increased
- CD90 expression (percent of CD90+ cells, FIG. 2A) (Human mPB CD34+ cells [4]; VPA 1.25 mM): dramatically increased
- fraction of CD34+CD133+CD90+CD49f+ cells (Human mPB CD34+ cells [4]; VPA 1.25 mM, CC110 media, 3 days, controls 14.4%): 85.9%
- proportion of CD34+CD133+ cells (Human mPB CD34+ cells [4]; VPA 1.25 mM, CC110 media, 3 days, controls 51.7%): 93.1%
- level of CD133, CD90 and CD49f expression, VPA added at day 1 vs day 4 (Human mPB CD34+ cells [4]; VPA + 5 mM Li): higher level
- marker expression after VPA washout and genome modification (Human mPB CD34+ cells [4]; addition after extended culture (Example 3B)): retained high CD90, CD34, CD133 and CD49f expression
- CD49f expression (FIG. 3C) (Human mPB CD34+ cells [4]): increased CD49f expression for up to 15 days
- CD133 expression (FIG. 3B) (Human mPB CD34+ cells [4]): increased
- fraction of cells unresponsive to VPA stimulation between days 1 and 4 post thawing (CD133, CD90 and CD49f expression) (Human mPB CD34+ cells [4]; day 1 vs day 4 addition): ~15%
- fraction of cells unresponsive to VPA stimulation between days 1 and 4 post thawing, CD49f (Human mPB CD34+ cells [4]; day 1 vs day 4 addition): ~15%
- fraction of cells unresponsive to VPA stimulation between days 1 and 4 post thawing, CD90 (Human mPB CD34+ cells [4]; day 1 vs day 4 addition): ~20%
- fraction of cells unresponsive to VPA stimulation between days 1 and 4 post thawing, CD133 (Human mPB CD34+ cells [4]; day 1 vs day 4 addition): ~15%
- CD34 expression, VPA added at day 1 vs day 4 post-thawing (Human mPB CD34+ cells [4]; extended culture): increased CD34 expression
- CD34 expression compared to controls (FIG. 3D) (Human mPB CD34+ cells [4]): retained elevated CD34 expression
- dose dependence of CD49f expression (Human mPB CD34+ cells [4]; increasing VPA): No significant dose dependence
- dose dependence of CD90 expression (Human mPB CD34+ cells [4]; increasing VPA): dose dependence
- dose dependence of CD34 expression (Human mPB CD34+ cells [4]; increasing VPA doses (1.25 mM, 2.5 mM)): slight dose dependence

Compound: CCCCC(C)(C)[C@H](O)/C=C/[C@H]1[C@H](O)CC(=O)[C@@H]1C/C=C\CCCC(=O)O [dmPGE2, 16,16-dimethyl Prostaglandin E2]
- cell density / growth (FIG. 3F) (Human mPB CD34+ cells [1]): slight growth advantage
- cell viability (FIG. 3E) (Human mPB CD34+ cells [2]; extended culture, 17 days): no effect on cell viability
- CD90 expression (FIG. 3A) (Human mPB CD34+ cells [4]; VPA 1.25 mM, CC110 media): No effect

Compound: NC(=O)c1cccnc1 [nicotinamide]
- CD90 expression (percent of CD90+ cells, FIG. 2A) (Human mPB CD34+ cells [4]; VPA 1.25 mM): No effect

Compound: IL-6: cytokine added to CC110 media at 100 ng/mL
- overall cell density with or without IL-6 (Human mPB CD34+ cells [1]; 100 ng/mL IL-6, VPA+Li cultures): higher overall cell density in the absence of IL-6
- VPA-increased HSC multipotency marker expression in the presence of IL-6 (Human mPB CD34+ cells [4]; 100 ng/mL IL-6): enhanced
- expression of CD49f in the presence of IL-6 (Human mPB CD34+ cells [4]; 100 ng/mL IL-6, extended culture with VPA+Li): enhancing
